Assays:
[1] = tested on: 02K cell line; experiment: Cell survival of differentiating 02K (phase contrast, cell adhesion, CPP32 cleavage, Annexin V); format: cell-based, porcine; details: SRM basal medium without hLIF, DOX, PD032591 and PD173074; N-2 and B-27
Procedure: Without being bound by theory or limited by any specific representative example, it was observed that simultaneous withdrawal of both DOX and the GSK3P inhibitor CHIR99021 from the culture medium supplemented with N-2 and B-27 serum replacements precipitates massive cell death of differentiating 02K parental line within 48 h hours. Withdrawal of DOX in the presence of CHIR99021 enabled survival of the differentiating 02K. Death by differentiating 02K cells in the absence of a GSK3P inhibitor and reciprocal survival in the presence thereof was confirmed by morphology, cell adhesion assay, cleaved caspase-3 accumulation, and Annexin V labeling. […] WNT signaling plays crucial roles in both mesoderm specification from the undifferentiated ground-state pluripotency, pre-myogenic enrichment from unpatterned mesoderm and terminal differentiation of committed myocytes both in vivo and in vitro. In agreement, extended culture of the 02K line in the absence of DOX, and in the presence of a GSK3P inhibitor, supported differentiation toward the pre-myogenic paraxial mesoderm, as evidenced by the expression of PAX3 and concomitant loss of POU5F1 and KLF4 expression.
CHIR99021 inhibition 1 cell death. […] 1. […]
An axis of apoptosis and differentiation is modulated by CHIR99021. […] TUBA is detected an internal protein loading control.

[2] = tested on: 02K cell line; experiment: Differentiation marker Western blot (PAX3, POU5F1, KLF4) in differentiating 02K; format: cell-based, porcine; details: CHIR99021 supplemented basal medium, absence of DOX
From the text: Expression levels of pluripotency markers, POU5F1 and KLF4, and the pre-myogenic paraxial mesoderm marker PAX3 in 02K cultures differentiated from the ground state in the presence of CHIR99021.
(§1) CHIR99021 inhibition 1 cell death. […] 1. As CHIR99021 repressed cell death, supported differentiation toward paraxial mesoderm by the differentiating 02K cell line and enhanced terminal differentiation by the C2C12 cell line, precedent was established to retain the compound in all culture stages.
(§2) CHIR99021 stabilizes CTNNB1 and supports differentiation from the ground state. […] TUBA detected as an internal protein loading control. FIG. 13A indicates ratios of p-CTNNB1/CTNNB1 bands. FIG. 13B indicates ratios of CTNNB1/TUBA bands. […] TUBA detection is shown as an internal protein loading control.

[3] = tested on: murine C2C12 myoblast; experiment: Terminal differentiation of C2C12 myoblasts scored by size and extent of myotube formation; format: cell-based; details: low-mitogen differentiation cultures (2% horse serum/DMEM)
[4] = tested on: CTNNB1; experiment: Western blot of CTNNB1 and p-CTNNB1 in differentiating 02K; format: cell-based, porcine; details: 24 h differentiation milieu transition
Procedure: Cultures were exposed to 50 nM Calyculin A and 30 μM MG-132 for 3 hours prior to harvest to stabilize detectable levels of p-CTNNB1 for comparative analysis.
as §1, §2

[5] = tested on: piPSC-derived myotubes; experiment: Calcium transient activity (Fluo-4 AM) in piPSC-derived myotubes; format: cell-based, porcine; details: 10 mM caffeine; d6 myotubes; field of view
From the text: Spontaneous and Stimuli-Induced Calcium Transient Activity in piPSC-derived myotubes. To quantify contraction cycles, myotube cultures were stained with Fluo-4 AM calcium dye, washed, and image sequences were captured by confocal microscopy. Dynamic signaling events of an entire field of view (FOV) or single cells were traced and plotted over the imaging course. [s]=seconds.

[6] = tested on: 02KM cells (MyoDER); experiment: 02KM myogenic induction by E2 activation of MyoDER; format: cell-based, porcine; details: 10 μM E2, 2 d induction
Procedure: 02KM myogenic induction. 02KM cells were seeded onto culture dishes coated with poly-D lysine, murine laminin and [sequence] at a density of 4.1×10^3 cells/cm^2 and cultured under 5% O2 in self-renewal medium for 3 d.

[7] = tested on: undifferentiated 02KM; experiment: Tolerance of undifferentiated 02KM to 5AC; format: cell-based, porcine
Procedure: 5AC effects. 5AC exposure prior to, during, and following E2-mediated induction of ‘MyoDER’ was introduced to enable terminal-differentiation of 02KM from myocytes into refractive, filamentous myotubes. The murine C2C12 cell line was used as positive control to screen for optimal conditions for terminal differentiation by 02KM. […] 5AC, a small-molecule epigenetic modulator, was determined previously to enable skeletal muscle transcription in cell lines non-permissive to myogenesis. Moreover, 5AC exposure was further determined to enhance terminal differentiation by the C2C12 cell line.

[8] = tested on: 02KM cell line
Procedure: Terminal Differentiation. […] N-2 and B-27 supplements were used exclusively as serum replacements. Cultures were differentiated for up to 6 d following under 20% O2 following induction regimens (FIG. 20A).
MyoDER was detected with an antibody raised against a MyoD peptide. […] Determinants of MYF5 activation: Western blot analyses. […] MYODER-modified piPSC were cultured 3 days in self-renewal or expansion milieu. […] TUBA is detected as an internal protein loading control.
Terminal Myogenesis of Lineage-Specified piPSC. […] DO and D6 cultures were stained for myosin heavy chain (MyHC) isoforms with a pan-MyHC monoclonal antibody, clone MF20. […] Right panel: myonuclei distribution by myotube ploidy by propidium iodide labeling and flow cytometry analysis. n=3 with standard deviation shown. […] MyoD (MYOD1), myogenin (MYOG) and desmin (DES) expression, dO-d8. TUBA is detected as an internal protein loading control. […] FIG. 20G: Transmission Electron Microscopy, d6 myotubes.

Cc1c[nH]c(-c2cnc(NCCNc3ccc(C#N)cn3)nc2-c2ccc(Cl)cc2Cl)n1 [CHIR99021]
cell survival during differentiation [1]: supported both cell survival during differentiation | pre-myogenic paraxial mesoderm lineage specification (PAX3 expression) [2]: supported pre-myogenic paraxial mesoderm lineage specification of differentiating 02K | terminal differentiation of C2C12 into multi-nucleated myotubes [3]: enhanced the terminal differentiation of the myogenic murine C2C12 cell line into multi-nucleated myotubes | CTNNB1 stabilization and phosphorylation status [4]: stabilizes and modulates the phosphorylation status of the GSK3P substrate, CTNNB1

Cn1c(=O)c2c(ncn2C)n(C)c1=O [caffeine]
calcium transient activation [5]: FOV calcium transient activation of d6 myotubes

C[C@]12CC[C@@H]3c4ccc(O)cc4CC[C@H]3[C@@H]1CC[C@@H]2O [E2, 17-β Estradiol]
myogenic lineage specification (spindle-like morphology, MYOG, NCAM) [6]: myogenic lineage specification following 2 d induction culture was confirmed

Nc1ncn([C@@H]2O[C@H](CO)[C@@H](O)[C@H]2O)c(=O)n1 [5AC, 5-Aza-Cytidine]
highest dose tolerated [7]: 250 nM | MYF5 expression in 02KM derived myocytes ([8]; 5AC 72 hours preceding DOX withdrawal and 48 hours during E2 induction): MYF5 expression was enhanced | myotube morphology during terminal differentiation ([8]; 5AC during expansion and induction regimens): formed refractive, anisotropic myotubes

Source: patent US20210171912A1, “METHOD FOR SCALABLE SKELETAL MUSCLE LINEAGE SPECIFICATION AND CULTIVATION” (Memphis Meats, Inc., priority 2013, published 2021)
